Assay results taken from ChEMBL document CHEMBL5042526, “Design, Synthesis, and Biological Evaluation of Triazolone Derivatives as Potent PPARα/δ Dual Agonists for the Treatment of Nonalcoholic Steatohepatitis” (J Med Chem, 2022).
pEC50: −log10 of the molar value.

Key:
[1] = molecular target: T1, Peroxisome proliferator-activated receptor alpha (Homo sapiens) (UniProt Q07869); conditions: filed as agonist, dose 10.0 nM
T1 sequence (whole entry): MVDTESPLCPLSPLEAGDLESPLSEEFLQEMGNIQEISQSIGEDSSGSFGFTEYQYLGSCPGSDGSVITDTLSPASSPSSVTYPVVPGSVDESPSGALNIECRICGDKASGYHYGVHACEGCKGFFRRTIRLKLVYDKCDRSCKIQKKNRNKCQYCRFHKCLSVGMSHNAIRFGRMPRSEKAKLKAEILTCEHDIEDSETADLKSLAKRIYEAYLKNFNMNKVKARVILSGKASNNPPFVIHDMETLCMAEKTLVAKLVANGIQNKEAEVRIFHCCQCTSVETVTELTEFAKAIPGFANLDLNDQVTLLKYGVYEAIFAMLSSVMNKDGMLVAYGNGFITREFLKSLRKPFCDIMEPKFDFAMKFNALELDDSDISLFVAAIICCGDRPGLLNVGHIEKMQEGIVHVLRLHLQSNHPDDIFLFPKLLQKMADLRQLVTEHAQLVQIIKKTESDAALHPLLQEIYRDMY
Description: Agonist activity at PPARalpha (unknown origin) assessed as maximal activation at 10 nM relative to GW7647

[2] = molecular target: T2, Peroxisome proliferator-activated receptor delta (Homo sapiens) (UniProt Q03181); conditions: filed as agonist, dose 10.0 nM
T2 sequence (whole entry): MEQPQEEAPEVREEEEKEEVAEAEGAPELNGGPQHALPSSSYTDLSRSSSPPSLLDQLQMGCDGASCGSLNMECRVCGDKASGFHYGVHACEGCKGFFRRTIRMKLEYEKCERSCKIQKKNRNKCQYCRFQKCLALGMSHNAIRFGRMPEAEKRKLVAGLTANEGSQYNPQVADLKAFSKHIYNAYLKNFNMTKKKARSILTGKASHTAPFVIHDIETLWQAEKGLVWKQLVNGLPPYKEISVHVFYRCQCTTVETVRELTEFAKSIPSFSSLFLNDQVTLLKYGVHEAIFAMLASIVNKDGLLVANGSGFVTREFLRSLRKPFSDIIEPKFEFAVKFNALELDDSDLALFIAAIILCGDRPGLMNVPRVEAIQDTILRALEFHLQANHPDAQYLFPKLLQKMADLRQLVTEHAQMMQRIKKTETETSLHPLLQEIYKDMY

[3] = molecular target: T3, Peroxisome proliferator-activated receptor gamma (Homo sapiens) (UniProt P37231); conditions: filed as agonist, dose 10.0 nM
T3 sequence (whole entry): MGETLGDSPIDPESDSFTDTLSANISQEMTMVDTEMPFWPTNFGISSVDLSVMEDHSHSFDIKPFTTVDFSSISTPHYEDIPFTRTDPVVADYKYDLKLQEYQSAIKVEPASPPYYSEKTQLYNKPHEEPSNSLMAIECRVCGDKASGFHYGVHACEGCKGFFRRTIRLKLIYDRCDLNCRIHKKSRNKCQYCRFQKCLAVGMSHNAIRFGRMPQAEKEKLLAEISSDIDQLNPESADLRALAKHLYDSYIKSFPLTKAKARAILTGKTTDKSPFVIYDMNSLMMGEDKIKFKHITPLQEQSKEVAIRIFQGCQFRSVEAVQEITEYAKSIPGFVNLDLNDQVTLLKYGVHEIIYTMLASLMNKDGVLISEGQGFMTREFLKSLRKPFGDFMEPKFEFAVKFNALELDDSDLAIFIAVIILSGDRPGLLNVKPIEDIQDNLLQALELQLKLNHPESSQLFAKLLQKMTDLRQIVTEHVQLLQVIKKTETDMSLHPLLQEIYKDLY

[4] = molecular target: T4, Peroxisome proliferator-activated receptor delta (Homo sapiens, UniProt Q03181); assay: Agonist activity at PPARdelta (unknown origin)
T4 sequence (Q03181 whole entry): T2 sequence (whole entry)

[5] = Microsomal stability in human liver microsomes assessed as terminal elimination half life at 1 uM measured upto 60 mins by LC-MS/MS-11 analysis; assay type: ADME, Microsome
[6] = Intrinsic clearance in human liver microsomes at 1 uM measured upto 60 mins by LC-MS/MS-11 analysis; assay type: ADME, Microsome; conditions: read-out: CLH
[7] = molecular target: T5, Peroxisome proliferator-activated receptor alpha (Homo sapiens, UniProt Q07869); assay: Agonist activity at PPARalpha (unknown origin)
T5 sequence (Q07869 whole entry): T1 sequence (whole entry)

[8] = molecular target: T6, Peroxisome proliferator-activated receptor gamma (Homo sapiens, UniProt P37231); assay: Agonist activity at PPARgamma (unknown origin)
T6 sequence (P37231 whole entry): T3 sequence (whole entry)

[9] = molecular target: T1, Peroxisome proliferator-activated receptor alpha (Homo sapiens); assay: Agonist activity at PPARalpha (unknown origin) assessed as maximal activation at 10 nM relative to control; conditions: filed as agonist
[10] = molecular target: T2, Peroxisome proliferator-activated receptor delta (Homo sapiens); assay: Agonist activity at PPARdelta (unknown origin) assessed as maximal activation at 10 nM relative to control; conditions: filed as agonist
[11] = molecular target: T3, Peroxisome proliferator-activated receptor gamma (Homo sapiens); assay: Agonist activity at PPARgamma (unknown origin) assessed as maximal activation at 10 nM relative to control; conditions: filed as agonist

Structure (SMILES) | Emax [1] [%] | Emax [2] [%] | Emax [3] [%] | pEC50 [4] | pEC50 [7] | pEC50 [8] | further results
Cc1cc(Cn2ncn(-c3ccc(Cl)cc3)c2=O)cc(C)c1OC(C)(C)C(=O)O | 126 | 114 | 180 | – | – | – | –
Cc1cc(Cc2cc(-c3ccc(Br)cc3)on2)cc(C)c1OC(C)(C)C(=O)O | – | – | – | 7.62 | 7.19 | 5.56 | Emax [9]: 135%; Emax [10]: 75%; Emax [11]: 118%
CCc1ccc(-n2cnn(Cc3cc(C)c(OC(C)(C)C(=O)O)c(C)c3)c2=O)cc1 | 98 | 99 | 149 | – | 7.85 | – | half-life at 1 µM [5]: > 2 h; CLint scaled at 1 µM [6]: 4.68 mL/min/kg
CCOc1ccc(-n2cnn(Cc3cc(C)c(OC(C)(C)C(=O)O)c(C)c3)c2=O)cc1 | 79 | 81 | – | – | 7.49 | < 5.30 | –
Cc1ccc(-n2cnn(Cc3cc(C)c(OC(C)(C)C(=O)O)c(C)c3)c2=O)cc1 | 114 | 87 | 87 | – | – | – | –
O=C(O)CCCc1cc2cc(Cl)ccc2n1S(=O)(=O)c1ccc2ncsc2c1 [LANIFIBRANOR] | – | – | – | 5.53 | 5.51 | 6.25 | Emax [9]: 65%; Emax [10]: 89%; Emax [11]: 119%
Cc1cc(Cn2ncn(-c3ccc(Br)cc3)c2=O)cc(C)c1OC(C)(C)C(=O)O | – | – | – | 7.67 | – | – | half-life at 1 µM [5]: > 2 h; CLint scaled at 1 µM [6]: 1.45 mL/min/kg
Cc1cc(Cn2ncn(-c3ccccc3)c2=O)cc(C)c1OC(C)(C)C(=O)O | – | – | – | – | – | 6.06 | –
CSc1ccc(C(=O)/C=C/c2cc(C)c(OC(C)(C)C(=O)O)c(C)c2)cc1 [ELAFIBRANOR] | – | – | – | – | – | – | Emax [9]: 82%; Emax [10]: 52%; Emax [11]: 115%; half-life at 1 µM [5]: > 2 h; CLint scaled at 1 µM [6]: 116 mL/min/kg
CCc1cc(Cn2ncn(-c3ccc(C(F)(F)F)cc3)c2=O)cc(CC)c1OC(C)(C)C(=O)O | – | – | – | – | 7.23 | – | –
Cc1cc(Cn2ncn(-c3ccc(C#N)cc3)c2=O)cc(C)c1OC(C)(C)C(=O)O | – | – | – | < 5.30 | < 5.30 | < 5.30 | –
Cc1cc(-n2ncn(-c3ccc(C(F)(F)F)cc3)c2=O)cc(C)c1OC(C)(C)C(=O)O | – | – | – | < 5.30 | < 5.30 | < 5.30 | –
CC(C)(Oc1ccc(Cn2ncn(-c3ccc(C(F)(F)F)cc3)c2=O)cc1Cl)C(=O)O | 150 | 97 | 99 | – | – | – | –
Cc1cc(Cn2ncn(-c3ccc(S(C)(=O)=O)cc3)c2=O)cc(C)c1OC(C)(C)C(=O)O | – | – | – | < 5.30 | – | < 5.30 | –
CC(C)(Oc1c(Cl)cc(Cn2ncn(-c3ccc(C(F)(F)F)cc3)c2=O)cc1Cl)C(=O)O | – | – | – | – | – | – | half-life at 1 µM [5]: > 2 h; CLint scaled at 1 µM [6]: 10.3 mL/min/kg
Cc1cc(OCn2ncn(-c3ccc(C(F)(F)F)cc3)c2=O)cc(C)c1OC(C)(C)C(=O)O | 69 | 72 | – | – | – | < 5.30 | –
Cc1cc(CCCn2ncn(-c3ccc(C(F)(F)F)cc3)c2=O)cc(C)c1OC(C)(C)C(=O)O | 78 | 72 | – | – | – | < 5.30 | –
Cc1cc(Cn2ncn(-c3ccccc3C(F)(F)F)c2=O)cc(C)c1OC(C)(C)C(=O)O | – | – | 84 | < 5.30 | < 5.30 | 5.42 | –
Cc1cc(Cn2ncn(-c3ccc(C(C)C)cc3)c2=O)cc(C)c1OC(C)(C)C(=O)O | – | – | – | – | 8.12 | – | –

Now from value to compound, other results behind:

Emax [1] [%] | Emax [2] [%] | Emax [3] [%] | pEC50 [4] | pEC50 [7] | pEC50 [8] | Structure (SMILES) | further results
– | – | – | 8.85 | – | – | Cc1cc(Cn2ncn(-c3ccc(C(F)(F)F)cc3)c2=O)cc(C(F)(F)F)c1OC(C)(C)C(=O)O | half-life at 1 µM [5]: > 2 h; CLint scaled at 1 µM [6]: 2.7 mL/min/kg
141 | 97 | 110 | – | – | – | Cc1cc(Cn2ncn(-c3ccc(OC(F)(F)F)cc3)c2=O)ccc1OC(C)(C)C(=O)O | –
– | – | – | 8.77 | – | – | Cc1cc(Cn2ncn(-c3ccc(C(F)(F)F)cc3)c2=O)cc(C)c1OC(C)(C)C(=O)O | half-life at 1 µM [5]: > 2 h; CLint scaled at 1 µM [6]: 3.6 mL/min/kg
162 | 81 | 76 | 7.83 | 8.07 | – | Cc1cc(Cn2ncn(-c3ccc(C(F)(F)F)cc3)c2=O)cc(Cl)c1OC(C)(C)C(=O)O | half-life at 1 µM [5]: > 2 h; CLint scaled at 1 µM [6]: 3.96 mL/min/kg
99 | 113 | – | – | – | < 5.30 | CC(C)(Oc1c(F)cc(Cn2ncn(-c3ccc(OC(F)(F)F)cc3)c2=O)cc1F)C(=O)O | –
– | – | – | 8.25 | – | – | Cc1cc(Cn2ncn(-c3ccc(OC(F)(F)F)cc3)c2=O)cc(C(F)(F)F)c1OC(C)(C)C(=O)O | half-life at 1 µM [5]: > 2 h; CLint scaled at 1 µM [6]: 0.09 mL/min/kg
153 | 118 | – | – | 8.17 | < 5.30 | CC(C)(Oc1c(Cl)cc(Cn2ncn(-c3ccc(OC(F)(F)F)cc3)c2=O)cc1Cl)C(=O)O | –
– | – | – | – | – | < 5.30 | CC(C)(Oc1c(F)cc(Cn2ncn(-c3ccc(C(F)(F)F)cc3)c2=O)cc1F)C(=O)O | –
120 | 107 | 114 | – | – | – | COc1ccc(-n2cnn(Cc3cc(C)c(OC(C)(C)C(=O)O)c(C)c3)c2=O)cc1 | –
109 | 71 | – | – | – | < 5.30 | CC(C)(Oc1ccc(Cn2ncn(-c3ccc(OC(F)(F)F)cc3)c2=O)cc1)C(=O)O | –
110 | 129 | – | 7.55 | 8.12 | < 5.30 | Cc1cc(Cn2ncn(-c3ccc(OC(F)(F)F)cc3)c2=O)cc(Cl)c1OC(C)(C)C(=O)O | –
130 | 160 | 70 | – | – | – | CC(C)(Oc1ccc(Cn2ncn(-c3ccc(OC(F)(F)F)cc3)c2=O)cc1OC(F)(F)F)C(=O)O | –
136 | 118 | – | – | – | < 5.30 | CC(C)(Oc1ccc(Cn2ncn(-c3ccc(C(F)(F)F)cc3)c2=O)cc1F)C(=O)O | –
111 | 95 | 67 | – | – | – | CC(C)(Oc1ccc(Cn2ncn(-c3ccc(OC(F)(F)F)cc3)c2=O)cc1Cl)C(=O)O | –
102 | 105 | – | – | – | < 5.30 | CC(C)(Oc1ccc(Cn2ncn(-c3ccc(OC(F)(F)F)cc3)c2=O)cc1F)C(=O)O | –
129 | 74 | 125 | – | 7.35 | 5.51 | CCc1cc(Cn2ncn(-c3ccc(OC(F)(F)F)cc3)c2=O)cc(CC)c1OC(C)(C)C(=O)O | –
– | – | – | – | – | < 5.30 | CC(C)(Oc1ccc(Cn2ncn(-c3ccc(C(F)(F)F)cc3)c2=O)cc1)C(=O)O | –
